Assay results taken from patent US8912137B2, “Method for increasing natriuresis or diuresis by isoforms of brain natriuretic peptide” (Mayo Foundation for Medical Education and Research, priority 2003, dated 2014).

Legend:
[1] = cited from earlier work
[2] = tested on: carotid arteries from New Zealand White Rabbits; test: Vasoactivity in organ chamber, phenylephrine pre-contracted carotid artery rings; settings: rabbit carotid rings
Description: Vasoactivity was assessed in an organ chamber using carotid arteries from New Zealand White Rabbits. Following euthanization, carotids were immediately immersed in cold Krebs solution. Arterial rings ˜4 mm in length (n=6) were dissected, connected to isometric force displacement transducers, and suspended in organ chambers filled with 25 mL of Krebs (94% O2, 6% CO2). Rings were equilibrated for 1 hour at 37° C. and then incrementally stretched to 3 g. Viability and maximum contraction was determined with 60 mM KCl. After 3 washes with Krebs solution and further equilibration, arteries were pre-contracted with phenylephrine in a titrated fashion to achieve ˜80% stable maximal contraction. To study vasoactivity, BNP3 (final cone 10^−10 to 10^−7 M) or vehicle was added to the organ bath in a cumulative manner. Following three further washes and equilibration, the arteries were re-contracted and viability was confirmed by assessment of endothelium independent responses with incremental doses of sodium nitroprusside (10^−9 to 10^−5 M), an exogenous NO donor.

[3] = tested on: Human umbilical vascular endothelial cells (HUVEC); test: Stimulation of intracellular cGMP production in HUVEC (BIOTRACK cGMP enzyme immunoassay); type: cell-based; settings: 30 minutes incubation, 0.5 mM IBXM
Description: Human umbilical vascular endothelial cells (HUVEC) were cultured in 96-well plates using endothelial cell medium (EGM™-2) supplemented with the components provided by the EGM™-2 BulletKit (CC-3162) (Clonetics, East Rutherford, N.J.). After cells reached about 80% confluency, the plates were washed with phosphate-buffered saline ([…], SEQ ID NO:35) dissolved in EBM-2 that contained supplements and 0.5 mM IBXM. After incubation, the culture medium was aspirated, and the cells were assayed for intracellular cGMP production using the BIOTRACK cGMP enzyme immunoassay kit (Amersham Pharmacia Biotech). The amount of cGMP was calculated according the standard curve that was generated from parallel reactions within the same experiment.

normal dogs = test: Intrarenal arterial infusion in normal dog; type: in vivo; settings: intrarenal arterial infusion 0.03 ng/kg/min
Description: To determine the physiological effects of BNP-3, the synthesized peptide was delivered via a direct intrarenal arterial infusion (0.03 ng/kg/min) in normal dogs. Physiologic assessment was performed following a 15 minute run-in period. […] Both of these increases normalized during a washout period.

| Substance | effect on heart rate ([1]; in vivo) | pro-arrhythmic effect ([1]; in vivo) | cardiac index ([1]; intravenous therapy) | pulmonary capillary wedge pressure ([1]; intravenous therapy) | systemic vascular resistance ([1]; intravenous therapy) | concentration at which vasorelaxation began ([2]; cumulative addition 10^−10 to 10^−7 M) | complete relaxation ([2]; dose 10^−7M) | complete relaxation ([2]; dose 10^−8M) | cGMP ([3]; BNP3 10^−8 M) | cGMP ([3]; BNP3 10^−9 M) | cGMP ([3]; BNP3 10^−10 M) | increased urinary flow (normal dogs) | plasma cGMP (normal dogs) | urinary excretion of sodium (normal dogs) |
| --- | --- | --- | --- | --- | --- | --- | --- | --- | --- | --- | --- | --- | --- | --- |
| recombinant BNP: recombinant brain natriuretic peptide, 32 amino acid peptide with a ring structure (SEQ ID NO:16) | no effect | not pro-arrhythmic | increases | significantly decreases | significantly decreases | – | – | – | – | – | – | – | – | – |
| SPKMVQGSGCFGRKMDRISSSSGLGCKVVQKENQTFPPGFL (listed as Homo sapiens) [BNP3] | – | – | – | – | – | 10^−9 M | ~95% | ~60% | 26 fmol/well | 18 fmol/well | 1 fmol/well | 6-8 fold | elevation of plasma cGMP | increased urinary excretion of sodium |
